Structures can show the parent of a compound that is named as a salt. Where two headings read alike, the source gives them in different places. Marks after values point to notes of the source that are not given here.

One may read the clearance as the rate of elimination divided by the concentration. The low end stands for a low capacity for elimination, the high end for a high capacity for elimination. Broadly, the half-life is the time in which the quantity being followed falls by half. A higher half-life goes with slow loss. One may read the bioavailability as dose-corrected exposure relative to a reference, in per cent. Lower therefore signals little systemic uptake. What is called IC50 is the concentration that inhibits the measured activity by half.

The nature of data set [1]: In vivo bioavailability experiment in mice (pharmacokinetics). As to conditions: ICR mice; for clearance / half-life / MRT / Vd / bioavailability: mouse, plasma; for MRT: read-out: Mean residence time; for Vd: read-out: Steady-state volume of distribution. As to the method:
Experimental Animals: ICR mice, weighing 20 grams, provided by Sino-British SIPPR Lab Animal Ltd, Shanghai. The compound to be tested was accurately weighed and dissolved in DMSO to prepare a stock solution with a concentration of 15 mg/mL. The compound stock solution was accurately measured and diluted with 0.9% saline and Solutol in a ratio of 8.8:1 to a concentration of 0.3 mg/mL. The solution was clear and transparent, used for intravenous administration. Additionally, the compound was accurately weighed and mixed with 0.5% CMC-Na to a concentration of 0.5 mg/mL, used for oral gavage administration. Intravenous group: Three ICR mice, weighing 20 g+2 g, were intravenously administered the intravenous dosing solution. The dosing volume was 10 mL/kg, with a dose of 3 mg/kg. Blood samples (0.03 mL) were collected from the fundus vein of the mice at pre-dose and at 2, 15, 30, 60, 120, 240, 480, and 1440 minutes post-dose. Oral gavage group: Three ICR mice, weighing 20 g+2 g, were administered the oral gavage dosing solution. The dosing volume was 20 mL/kg, with doses of 10 mg/kg and 30 mg/kg. Blood samples (0.03 mL) were collected from the fundus vein of the mice at pre-dose and at 5, 15, 30, 60, 120, 240, 480, and 1440 minutes post-dose. The blood samples were centrifuged at 6800 g for 6 minutes at 2-8° C. The plasma was collected and stored in centrifuge tubes at -70° C. for later analysis. A 19 μL aliquot of blank mouse plasma was taken, and 1 μL of the standard curve working solution was added to prepare a series of concentration samples at 1, 0.5, 0.2, 0.1, 0.05, 0.01, 0.005, and 0.001 μg/mL. The mixture was vortexed and mixed well, and 400 μL of methanol containing an internal standard (Warfarin, 100 ng/mL) was added to precipitate the proteins. The mixture was vortexed and shaken for 1 minute, centrifuged at 18000 g for 7 minutes at 4° C., and the supernatant was transferred to a 96-well plate for injection. A 20 μL aliquot of the plasma sample was mixed with 400 μL of methanol containing an internal standard (Warfarin, 100 ng/mL) to precipitate the proteins. The mixture was vortexed for 10 minutes, centrifuged at 18000 g for 7 minutes at 4° C., and 400 μL of the supernatant was transferred to a 96-well plate for a 10 μL injection. Liquid chromatography system: Acquity UPLC system (including a binary solvent manager, sample manager, column heater, and degasser) from Waters Corporation, USA. MS/MS system: QTRAP® 6500+ triple quadrupole mass spectrometer equipped with an electrospray ionization (ESI) source from Sciex Corporation, USA. Analytical column: BEH C18 column, 1.7 μm, 50×2.1 mm I.D., from Waters Corporation, USA. Flow rate: 0.60 mL/min; injection volume: 10 μL; column temperature: 40° C. The gradient elution program used was as follows: The ion source was an electrospray ionization source (Turbo Ionspray, ESI); the ion spray voltage was […]; the temperature was 500° C.; the ion source gas 1 (N2) pressure was 50 psi; the ion source gas 2 (N2) pressure was 50 psi; the curtain gas (N2) pressure was 20 psi; the collision gas pressure (CAD) was Medium; detection was performed in positive ion mode; the scan type was multiple reaction monitoring (MRM).

For a further data set, the target named is GTP-KRAS-G12D:SOS1 (Homo sapiens (Human), UniProt P01116, G12D). The data set can be described thus: GTP-KRAS-G12D:SOS1 binding inhibition. As to the method:
(§1) The IC50 of the compounds was fitted using a nonlinear regression equation with GraphPad Prism 8. The results are presented in Table 2: • Negative control: DMSO • Positive control: 100 μM BI-2852
(§2) The following nonlinear fitting formula was used to obtain the IC50 (half-maximal inhibitory concentration) of the compounds:
(§3) [formula] • X: logarithm of the compound concentration • Y: 665/615 Ratio

Another data set concerns the target GTP-KRAS-G12D:CRAF (Homo sapiens (Human), UniProt P01116, G12D). In words: GTP-KRAS-G12D:CRAF binding inhibition. As to the method:
The IC50 of the compounds was fitted using a nonlinear regression equation with GraphPad Prism 8. The results are presented in Table 2: • Negative control: DMSO • Positive control: 100 μM BI-2852 The following nonlinear fitting formula was used to obtain the IC50 (half-maximal inhibitory concentration) of the compounds: [formula] • X: logarithm of the compound concentration • Y: 665/615 Ratio

In a further data set the target is GTP-KRAS-WT:SOS1 (Homo sapiens (Human), UniProt P01116). In words: KRAS_WT and SOS1 binding inhibition (KRAS-WT/SOS1 binding kit, 665/615 ratio). The following applies: GTP 10 μM.
From the text: To detect the inhibitory capability of small molecule compounds on the binding activity between KRAS_WT and SOS1 using a drug screening system based on the binding of KRAS_WT and SOS1 interaction.
a) BI-2852 was used as a positive control, with its stock solution as the first dilution point, followed by a 3-fold dilution, making a total of 10+0 dilutions. Similarly, the first dilution point of the test compounds was also their respective stock solutions, followed by a 3-fold dilution, making a total of 11+0 dilutions. Using Echo, 0.2 μL of the gradient-diluted compound solutions were transferred into a 384-well plate, with each compound tested in duplicate. The final DMSO concentration was 1%. The plate was centrifuged at 1000 rpm for 1 minute. The final concentrations of the positive controls were 100, 33.33, 11.11, 3.70, 1.23, 0.412, 0.137, 0.046, 0.015, 0.005, and 0 μM. The final concentrations of the test compounds were […], 0.01, and 0 μM.
b) KRAS_WT from the kit was prepared with GTP at a final concentration of 10 μM in the dilution buffer, and 5 μL was transferred into the 384-well reaction plate. The plate was centrifuged at 1000 rpm for 1 minute.
c) Subsequently, 5 μL of the SOS1 mixture was transferred into the 384-well reaction plate. The plate was centrifuged at 1000 rpm for 1 minute and incubated at 25° C. for 15 minutes.
d) 10 μL of the detection mixture was transferred into the 384-well reaction plate. The plate was centrifuged at 1000 rpm for 1 minute and incubated overnight at 4° C.
e) The […] and emission wavelength at 615 nm were read using an Envision multimode plate reader. The 665/615 ratio signal intensity was used to characterize the enzyme activity.
as §1, §2, §3

[2] abbreviates: intravenous injection, dose 3 (3 mg/kg in method).
[3] abbreviates: oral, dose 30 (30 mg/kg in method).

Sequence of GTP-KRAS-WT:SOS1 (P01116-2 other isoform, or with tags, fused parts or gaps): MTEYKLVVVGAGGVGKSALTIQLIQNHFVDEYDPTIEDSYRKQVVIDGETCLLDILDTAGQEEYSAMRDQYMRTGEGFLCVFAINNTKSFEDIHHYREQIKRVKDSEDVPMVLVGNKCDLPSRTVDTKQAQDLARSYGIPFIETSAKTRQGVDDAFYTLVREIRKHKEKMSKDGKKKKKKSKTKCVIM
Sequence of GTP-KRAS-G12D:SOS1 (P01116-2 other isoform, or with tags, fused parts or gaps G12D): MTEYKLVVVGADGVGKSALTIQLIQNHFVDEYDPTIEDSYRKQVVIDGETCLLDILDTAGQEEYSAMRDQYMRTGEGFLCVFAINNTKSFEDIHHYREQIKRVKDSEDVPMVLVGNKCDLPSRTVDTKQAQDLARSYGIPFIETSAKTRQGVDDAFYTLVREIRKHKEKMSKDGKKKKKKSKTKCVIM
Sequence of GTP-KRAS-G12D:CRAF (P01116-2 other isoform, or with tags, fused parts or gaps G12D): as above

Consider `CCc1cccc2cc(O)cc(-c3c(F)c4c5c(nc(OC[C@@]67CCCN6C[C@H](F)C7)nc5c3F)N3CC5CCC(N5)C3CCO4)c12` (single isomer, unassigned) [13a′, 4-((2S or 2R,6aS,7S,10R)-1,3-Difluoro-14-(((2R,7aS)-2-fluorotetrahydro-1H-pyrrolizin-7a(5H)-yl)methoxy)-5,6,6a,7,8,9,10,11-octahydro-7,10-epiminoazepino[1′,2′: 5,6][1,5]oxazocino[4,3,2-de]quinazolin-2-yl)-5-ethylnaphthalen-2-ol], for which, in data set [1] (setting [2]), the Area under curve is on record as 2062.35 (h) * (ng/mL), the Maximum plasma concentration is 3563.93 ng/mL, the clearance was 6.5 mL/min/kg and the half-life was 15.9 h. Besides, in data set [1] (setting [2]), the MRT is 4.73 h and the Vd worked out at 5.33 L/kg. Further, in data set [1] (setting [3]), the Area under curve is 3091.66 (h) * (ng/mL), the Maximum plasma concentration came to 781.43 ng/mL, the bioavailability was 15% and the half-life is 4.68 h. The MRT in data set [1] (setting [3]) is 4.53 h. The IC50 on GTP-KRAS-G12D:SOS1 came to 28.2 nM.

On to `F[C@H]1CN2CCC[C@@]2(COc2nc3c(c(N4CC5CCC(C4)N5)n2)CCC2(CCc4c(Cl)cccc42)C3)C1` (single isomer, unassigned) [Compound 1a, (S or R)-4′-((1R,5S)-3,8-Diazabicyclo[3.2.1]octan-3-yl)-4-chloro-2′-((2R,7aS)-2-fluorotetrahydro-1H-pyrrolizin-7a(5H)-ylmethoxy)-2,3,5′,8′-tetrahydro-6′H-spiro[indene-1,7′-quinazoline]dihydrochloride], for which the IC50 on GTP-KRAS-G12D:CRAF was 333 nM; on GTP-KRAS-WT:SOS1, 4100 nM; on GTP-KRAS-G12D:SOS1 it was 45.6 nM.

On to `Oc1cc(Cl)c2c(c1)C1(CC2)CCc2c(nc(OC[C@@]34CCCN3C[C@H](F)C4)nc2N2CC3CCC(C2)N3)C1` (single isomer, unassigned) [Compound 2a, (S or R)-4′-((1R,5S)-3,8-Diazabicyclo[3.2.1]octan-3-yl)-4-chloro-2′-((2R,7aS)-2-fluorotetrahydro-1H-pyrrolizin-7a(5H)-ylmethoxy)-2,3,5′,8′-tetrahydro-6′H-spiro[indene-1,7′-quinazolin]-6-ol dihydrochloride], for which the values for the IC50 on GTP-KRAS-G12D:CRAF, at GTP-KRAS-WT:SOS1 and on GTP-KRAS-G12D:SOS1 were 32.5 nM, 254 nM and 16.7 nM, respectively.

Take `CC1CC2(CCc3c(nc(OC[C@@]45CCCN4C[C@H](F)C5)nc3N3CC4CCC(C3)N4)C2)c2cc(O)cc(Cl)c21` (single isomer, unassigned) [Compound 7a, (1R or 1S)-4′-((1R,5S)-3,8-Diazabicyclo[3.2.1]octan-3-yl)-4-chloro-2′-(((2R,7aS)-2-fluorotetrahydro-1H-pyrrolizin-7a(5H)-yl)methoxy)-3-methyl-2,3,5′,8′-tetrahydro-6′H-spiro[indene-1,7′-quinazolin]-6-ol dihydrochloride]: the IC50 at GTP-KRAS-G12D:CRAF was 24 nM; at GTP-KRAS-WT:SOS1, 246 nM; on GTP-KRAS-G12D:SOS1, 21.5 nM.

On to `CCc1cccc2cc(O)cc(-c3c(F)c4c5c(nc(OC[C@]67C[C@@H](F)CN6C[C@@H](COC)C7)nc5c3F)N3CC5CCC(N5)C3CO4)c12` (single isomer, unassigned) [Compound 18b, 4-((2S or 2R,5aS,6S,9R)-1,3-difluoro-13-(((2R,6S,7aS)-2-fluoro-6-(methoxymethyl)tetrahydro-1H-pyrrolizin-7a(5H)-yl)methoxy)-5a,6,7,8,9,10-hexahydro-5H-6,9-epiminoazepino[2′,1′:3,4][1,4]oxazepino[5,6,7-de]quinazolin-2-yl)-5-ethylnaphthalen-2-ol dihydrochloride], for which, in data set [1] (setting [2]), the Area under curve is 1944.73 (h) * (ng/mL), the Maximum plasma concentration is recorded as 7632.72 ng/mL, the clearance is 24.5 mL/min/kg and the half-life was 11.8 h. Also, in data set [1] (setting [2]), the MRT was found to be 1.41 h and the Vd is 4.98 L/kg. Further, in data set [1] (setting [3]), the Area under curve was 1904.95 (h) * (ng/mL), the Maximum plasma concentration was 508.76 ng/mL, the bioavailability came to 9.8% and the half-life was 3.57 h. In addition, the MRT in data set [1] (setting [3]) is 3.77 h. At GTP-KRAS-G12D:SOS1, the IC50 was 7.5 nM.

As for `CCc1cccc2cc(O)cc(-c3c(F)c4c5c(nc(OC[C@]67C[C@@H](F)CN6C[C@@H](CN6C[C@@H](C)O[C@@H](C)C6)C7)nc5c3F)N3CC5CCC(N5)C3CO4)c12` (single isomer, unassigned) [Compound 25b, 4-((2S or 2R)-13-(((2R,6R,7aS)-2-(((2R,6S)-2,6-dimethylmorpholino)methyl)-6-fluorotetrahydro-1H-pyrrolizin-7a(5H)-yl)methoxy)-1,3-difluoro-5a,6,7,8,9,10-hexahydro-5H-6,9-epiminoazepino[2′,1′:3,4][1,4]oxazepino[5,6,7-de]quinazolin-2-yl)-5-ethylnaphthalen-2-ol trihydrochloride], in data set [1] (setting [2]), the Area under curve is reported as 7940.26 (h) * (ng/mL), the Maximum plasma concentration worked out at 22039.3 ng/mL, the clearance was 6.33 mL/min/kg and the half-life was 12.2 h. For the same compound, in data set [1] (setting [2]), the MRT was 1.01 h and the Vd was 0.84 L/kg. Further, in data set [1] (setting [3]), the Area under curve is 2365.19 (h) * (ng/mL), the Maximum plasma concentration is recorded as 863.75 ng/mL, the bioavailability came out at 2.98% and the half-life was 3.81 h. Besides, the MRT in data set [1] (setting [3]) amounted to 3.15 h. This compound also showed an IC50 on GTP-KRAS-G12D:SOS1 of 6.72 nM.

These data come from patent US20250197424A1, “QUINOLINE COMPOUND AND USE THEREOF” (SHANGHAI PHARMACEUTICALS HOLDING CO., LTD., priority 2022, published 2025).
